Experimental data: ChEMBL document CHEMBL1134074, “Identification of novel potent hydroxamic acid inhibitors of peptidyl deformylase and the importance of the hydroxamic acid functionality on inhibition” (Bioorg Med Chem Lett, 2001)
Converted amounts (≈) assume the structure as drawn.

Key:
Escherichia coli = experiment: Antibacterial activity against Escherichia coli (ECOL) 6674; type: functional
Peptide deformylase = target: T1, Peptide deformylase (Staphylococcus aureus subsp. aureus Mu50, UniProt P68825); experiment: Inhibition of Peptidyl deformylase (PDF)
T1 sequence (P68825 whole entry): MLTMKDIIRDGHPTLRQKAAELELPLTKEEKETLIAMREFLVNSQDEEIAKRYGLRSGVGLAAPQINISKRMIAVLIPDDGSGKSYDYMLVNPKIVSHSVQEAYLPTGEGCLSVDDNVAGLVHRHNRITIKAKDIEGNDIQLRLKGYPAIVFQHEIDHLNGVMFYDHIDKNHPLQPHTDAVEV

Staphylococcus aureus = experiment: Antibacterial activity against Staphylococcus aureus (SAUR) 9218; type: functional
Streptococcus pneumoniae = experiment: Antibacterial activity against Streptococcus pneumoniae (SPNE) 9912; type: functional
[1] = test system: Staphylococcus epidermidis; experiment: Antibacterial activity against Staphylococcus epidermidis (SEPI) 12084; type: functional

MIC (Escherichia coli) [µg/mL] | IC50 (Peptide deformylase) [µM] | MIC (Staphylococcus aureus) [µg/mL] | MIC (Streptococcus pneumoniae) [µg/mL] | MIC [1] [µg/mL] | SMILES
> 128 | 0.69 | > 128 | > 128 | > 128 | O=C(NO)C(NCc1cccc(C(F)(F)F)c1)c1ccc(F)c(F)c1 (stereo unspecified)
> 128 | 4.1 | 64 (≈ 171 µM) | 32 (≈ 85.7 µM) | 128 (≈ 343 µM) | NNC(=O)C(NCc1cccc(C(F)(F)F)c1)c1cccc2ccccc12 (stereo unspecified)
> 128 | > 100 | > 128 | > 128 | > 128 | NNC(=O)N(CCc1cccc(C(F)(F)F)c1)c1cccc2ccccc12
> 128 | 0.46 | > 128 | > 128 | > 128 | O=C(NO)C(NCc1cccc(C(F)(F)F)c1)c1ccccc1F (stereo unspecified)
> 32 | – | > 32 | > 32 | > 32 | COc1cc(Cl)c(CC(=O)NO)cc1OC
> 128 | > 100 | > 128 | 128 (≈ 356 µM) | > 128 | O=C(O)C(NCc1cccc(C(F)(F)F)c1)c1cccc2ccccc12 (stereo unspecified)
> 128 | – | > 128 | > 128 | > 128 | COc1cccc(C(NCc2cccc(C(F)(F)F)c2)C(=O)NO)c1 (stereo unspecified)
> 128 | – | 32 (≈ 85.5 µM) | 32 (≈ 85.5 µM) | 32 (≈ 85.5 µM) | O=C(NO)N(CCc1cccc(C(F)(F)F)c1)c1cccc2ccccc12
> 128 | > 100 | > 128 | > 128 | > 128 | O=C(CS)N(CCc1cccc(C(F)(F)F)c1)c1cccc2ccccc12
> 64 | – | > 64 | > 64 | > 64 | O=C(NO)C(NCc1cccc(C(F)(F)F)c1)c1cccc2ccccc12 (stereo unspecified)
> 128 | > 50 | > 128 | > 128 | > 128 | O=C(Cc1ccc(-c2ccccc2)cc1)NO
> 128 | > 100 | 64 (≈ 179 µM) | 16 (≈ 44.6 µM) | 64 (≈ 179 µM) | NC(=O)C(NCc1cccc(C(F)(F)F)c1)c1cccc2ccccc12 (stereo unspecified)
> 128 | > 100 | 32 (≈ 85.7 µM) | 32 (≈ 85.7 µM) | > 128 | O=C(CO)N(CCc1cccc(C(F)(F)F)c1)c1cccc2ccccc12
> 128 | > 100 | > 128 | > 128 | > 128 | CC(=O)NO [ACETOHYDROXAMIC ACID]
